In the NIST ThermoML archive (doi:10.1016/j.jct.2012.11.007):

Assay: mn = molality of the nth substance listed, in mol/kg
Settings: 101 kPa, Liquid; for mass density: Vibrating tube method; for speed of sound: Pulse-echo method

NC(N)=O [urea] + O
Settings	mass density, 288.15 K [kg/m3]	mass density, 293.15 K [kg/m3]	mass density, 298.15 K [kg/m3]	mass density, 303.15 K [kg/m3]	mass density, 308.15 K [kg/m3]	speed of sound, 298.15 K [m/s]
m1 = 0.06521	1000.18	999.268	998.076	996.664	995.029	1498.5
m1 = 0.1233	1001.14	1000.2	998.994	997.564	995.915	1500
m1 = 0.1812	1002.09	1001.13	999.906	998.455	996.792	1501.5
m1 = 0.2403	1003.05	1002.07	1000.83	999.361	997.684	1503.1
m1 = 0.3004	1004.03	1003.02	1001.76	1000.28	998.584	1504.6

CNC(N)=O [methylurea] + O
Settings	mass density, 288.15 K [kg/m3]	mass density, 293.15 K [kg/m3]	mass density, 298.15 K [kg/m3]	mass density, 303.15 K [kg/m3]	mass density, 308.15 K [kg/m3]	speed of sound, 298.15 K [m/s]
m1 = 0.06094	999.856	998.94	997.762	996.348	994.718	1499.1
m1 = 0.1225	1000.62	999.688	998.491	997.062	995.418	1501.5
m1 = 0.1837	1001.38	1000.42	999.21	997.766	996.108	1503.9
m1 = 0.2452	1002.13	1001.16	999.928	998.469	996.799	1506.3
m1 = 0.3076	1002.89	1001.9	1000.66	999.182	997.498	1508.7

CCNC(=O)NCC [1,3-diethylurea] + O
Settings	mass density, 288.15 K [kg/m3]	mass density, 293.15 K [kg/m3]	mass density, 298.15 K [kg/m3]	mass density, 303.15 K [kg/m3]	mass density, 308.15 K [kg/m3]	speed of sound, 298.15 K [m/s]
m1 = 0.06282	999.298	998.383	997.207	995.788	994.155	1501.8
m1 = 0.1269	999.524	998.589	997.392	995.959	994.306	1507
m1 = 0.1909	999.768	998.812	997.588	996.14	994.468	1512.1
m1 = 0.2561	1000.03	999.043	997.793	996.313	994.634	1517.2
m1 = 0.3224	1000.31	999.289	998.012	996.517	994.82	1522.3

CNC(=O)NC [1,3-dimethylurea] + O
Settings	mass density, 288.15 K [kg/m3]	mass density, 293.15 K [kg/m3]	mass density, 298.15 K [kg/m3]	mass density, 303.15 K [kg/m3]	mass density, 308.15 K [kg/m3]	speed of sound, 298.15 K [m/s]
m1 = 0.06095	999.619	998.707	997.534	996.121	994.493	1499.8
m1 = 0.1226	1000.15	999.227	998.04	996.616	994.975	1503
m1 = 0.1846	1000.69	999.75	998.549	997.113	995.461	1506.1
m1 = 0.247	1001.24	1000.28	999.063	997.613	995.947	1509.2
m1 = 0.3099	1001.79	1000.82	999.585	998.121	996.442	1512.3

CCCCNC(N)=O [N-butylurea] + O
Settings	mass density, 288.15 K [kg/m3]	mass density, 293.15 K [kg/m3]	mass density, 298.15 K [kg/m3]	mass density, 303.15 K [kg/m3]	mass density, 308.15 K [kg/m3]	speed of sound, 298.15 K [m/s]
m1 = 0.05745	999.477	998.55	997.366	995.939	994.3	1501.5
m1 = 0.1154	999.871	998.918	997.706	996.251	994.591	1506.3
m1 = 0.173	1000.27	999.281	998.053	996.57	994.872	1511.2
m1 = 0.2305	1000.68	999.67	998.404	996.892	995.175	1516
m1 = 0.2873	1001.11	1000.06	998.771	997.219	995.477	1520.9

CCNC(N)=O [ethylurea] + O
Settings	mass density, 288.15 K [kg/m3]	mass density, 293.15 K [kg/m3]	mass density, 298.15 K [kg/m3]	mass density, 303.15 K [kg/m3]	mass density, 308.15 K [kg/m3]	speed of sound, 298.15 K [m/s]
m1 = 0.06285	999.725	998.807	997.629	996.213	994.58	1500
m1 = 0.1203	1000.29	999.358	998.163	996.73	995.083	1503.1
m1 = 0.179	1000.88	999.919	998.707	997.258	995.602	1506.2
m1 = 0.2358	1001.44	1000.47	999.234	997.769	996.09	1509.1
m1 = 0.3016	1002.09	1001.09	999.839	998.357	996.661	1512.5
